In patent publication US9487489B2, “Halogen-substituted pyrazole derivatives as pest-control agents” (BAYER CROPSCIENCE AKTIENGESELLSCHAFT, priority 2013, dated 2016):

Legend:
[1] = tested on: engorged adult female cattle ticks (Boophilus microplus); test: Boophilus microplus injection test (BOOPMI Inj); type: in vivo; settings: application rate 20 μg/animal; injection into abdomen; assessed after 7 days
Method in brief: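 Efficacy is read at 7 days as fertile egg laying (100% = no fertile eggs laid; 0% = all eggs fertile), with eggs of unclear fertility stored until larvae hatch at about 42 days. Five engorged adult females per dose each receive an abdominal injection of 1 μl compound dissolved in DMSO.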

[2] = tested on: larvae of the mustard beetle (Phaedon cochleariae); test: Phaedon cochleariae spray test (PHAECO); type: in vivo; settings: Chinese cabbage leaf discs, after 7 days
Method in brief: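 Kill of mustard beetle larvae is read as % mortality 7 days after spraying. Spray liquid: active compound in acetone plus dimethylformamide, brought up with water holding 1000 ppm alkylaryl polyglycol ether emulsifier and diluted further in emulsifier-water.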

[3] = tested on: adult houseflies (Musca domestica); test: Musca domestica test (MUSCDO); type: in vivo; settings: application rate 100 ppm; after 2 days
Method in brief: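 Groups of 10 adult Musca domestica exposed to a sugar-soaked sponge treated with the water-diluted DMSO preparation of compound at the chosen concentration. Percent kill read at day 2, where 0% means no flies killed and 100% all killed.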

[4] = tested on: adult cat fleas (Ctenocephalides felis); test: Ctenocephalides felis in vitro contact test with adult cat fleas (T1); settings: after 48 h
Method in brief: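 Adult cat fleas (Ctenocephalides felis), 5-10 per tube, were exposed to the inner surface of 25 ml test tubes coated with compound in acetone. Tubes were incubated lying flat under ambient conditions. Efficacy was then read by standing tubes upright and knocking the fleas to the floor. Fleas that stayed motionless or moved uncoordinatedly counted as dead or moribund, where 100% means all fleas dead or moribund and 0% means none harmed.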

[5] = tested on: adult dog ticks (Rhipicephalus sanguineus); test: Rhipicephalus sanguineus in vitro contact test with adult brown dog ticks (T2); settings: after 48 h
Method in brief: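 Acetone solutions coated onto test tube walls and floor, giving 5 μg/cm^2 at 900 ppm. Five to ten adult ticks held per tube in the dark at room temperature for 48 h, then heated at 45-50° C for up to 5 min; efficacy is the percentage of dead or moribund ticks unable to climb away.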

[6] = tested on: green peach aphid (Myzus persicae); test: Myzus persicae spray test (MYZUPE); type: in vivo; settings: application rate 500 g/ha; Chinese cabbage leaf discs; after 6 days
Method in brief: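 Chinese cabbage leaf discs infested with all aphid stages sprayed with compound in acetone/DMF with alkylaryl polyglycol ether emulsifier in water. Efficacy (% aphids killed; 100% all dead, 0% none) scored after 6 days.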

[7] = tested on: caterpillars of the armyworm (Spodoptera frugiperda); test: Spodoptera frugiperda spray test (SPODFR); type: in vivo; settings: maize leaf discs, after 7 days
Method in brief: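 Percent kill read at day 7 on caterpillar-infested maize leaf discs. Discs were first sprayed with aqueous emulsifier-containing (1000 ppm) preparations made from acetone/dimethylformamide solutions, and dried. Scale: 0% none dead, 100% all dead.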

[8] = tested on: cattle ticks (Boophilus microplus) Parkhurst strain, SP-resistant; test: Boophilus microplus dip test (BOOPMI Dip); type: in vivo; settings: application rate 100 ppm, assessed after 7 days
Method in brief: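 Adult engorged female SP-resistant Parkhurst ticks (8–10) were fully immersed in compound diluted in water from a DMSO solution, then kept in a climate-controlled room. After 7 days, fertile egg-laying was scored, with larval hatching checked at about 42 days; 100% efficacy means no fertile eggs.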

[9] = tested on: southern root-knot nematode (Meloidogyne incognita); test: Meloidogyne incognita test (MELGIN); type: in vivo; settings: application rate 20 ppm; lettuce; after 14 days
Description: K. Meloidogyne incognita Test (MELGIN)
Solvent: 125.0 parts by weight of acetone
To prepare a suitable active compound preparation, 1 part by weight of active compound is mixed with the stated amount of solvent and the concentrate is diluted with water to the desired concentration.
Vessels are filled with sand, active compound solution, an egg/larvae suspension of the southern root-knot nematode (Meloidogyne incognita) and lettuce seeds. The lettuce seeds germinate and the plants develop. On the roots, galls are formed.
After 14 days, the nematicidal efficacy in % is determined by the formation of galls. 100% means that no galls have been found; 0% means that the number of galls on the treated plants corresponds to the untreated control.

[10] = tested on: adult cat fleas (Ctenocephalides felis); test: Ctenocephalides felis oral test (CTECFE); type: in vivo; settings: application rate 100 ppm in citrated cattle blood; after 2 days
Method in brief: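 Mortality read at 2 days as percent of fleas killed. Compound predissolved in DMSO, diluted into citrated cattle blood and offered to roughly 20 unfed adult C. felis via parafilm membrane feeder.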

[11] = tested on: greenhouse red spider mite (Tetranychus urticae); test: Tetranychus urticae spray test, OP-resistant (TETRUR); type: in vivo; settings: bean leaf discs, after 6 days
Method in brief: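 Percent kill, scored 6 days post-spray (0% = none dead, 100% = all dead), on Phaseolus vulgaris leaf discs infested with every life stage of the OP-resistant spider mite. Compound dissolved in acetone plus DMF, diluted to test concentration with emulsifier-containing water (1000 ppm).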

[12] = tested on: L1 larvae of the Australian sheep blowfly (Lucilia cuprina); test: Lucilia cuprina test (LUCICU); type: in vivo; settings: application rate 100 ppm; after 2 days
Method in brief: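 Percent mortality read at 2 days; 100% = all larvae killed, 0% = none. Test compound, predissolved in DMSO and water-diluted to the wanted level, was mixed into minced horsemeat holding roughly 20 first-instar larvae.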

[13] = tested on: adult castor bean ticks (Ixodes ricinus); test: Ixodes ricinus in vitro contact test with adult castor bean ticks (T3); settings: application rate 5 μg/cm^2; after 48 h
Description: T3. Ixodes ricinus-in vitro Contact Tests with Adult Castor Bean Ticks
For the coating of the test tubes, initially 9 mg of active compound are dissolved in 1 ml of acetone p.a. and then diluted with acetone p.a. to the desired concentration. By turning and rocking on an orbital shaker (2 h of rocking rotation at 30 rpm), 250 μl of the solution are distributed homogeneously on the internal walls and the floor of a 25 ml test tube. At 900 ppm active compound solution and 44.7 cm^2 internal surface, an area dose of 5 μg/cm^2 is achieved for homogeneous distribution.
After evaporation of the solvent, the tubes are populated with 5-10 adult castor bean ticks (Ixodes ricinus), sealed with a perforated plastic lid and incubated in a horizontal position in the dark at 22° C. and 90% humidity in a climate-controlled cabinet. After 48 h, the efficacy is determined. To this end, the ticks are knocked to the floor of the tube and incubated on a hotplate at 45-50° C. for at most 5 min. Ticks which remain motionless on the floor or move in an uncoordinated manner such that they are not able to deliberately avoid the heat by climbing upwards are considered to be dead or moribund.
An efficacy of 100% means that all ticks were dead or moribund. 0% efficacy means that none of the ticks had been damaged.

[14] = tested on: bont tick nymphs (Amblyomma hebraeum); settings: after 48 h
[15] = tested on: Tick nymphs (Amblyomma hebraeum); test: Amblyomma hebraeum test (AMBYHE), tick nymphs immersed; type: in vivo; settings: application rate 100 ppm; immersed one minute; after 42 days
Description: A. Amblyomma hebaraeum Test (AMBYHE)
Solvent: dimethyl sulphoxide
To produce a suitable preparation of active compound, 10 mg of active compound are mixed with 0.5 ml of dimethyl sulfoxide, and the concentrate is diluted with water to the desired concentration.
Tick nymphs (Amblyomma hebraeum) are placed into perforated plastic beakers and immersed in the desired concentration for one minute. The ticks are transferred on filter paper into a Petri dish and stored in a climate-controlled cabinet.
After 42 days, the kill in % is determined. 100% means that all of the ticks have been killed; 0% means that none of the ticks have been killed.

[16] = logP determination by HPLC on a reversed-phase column (C18), EEC Directive 79/831 Annex V.A8; type: physicochemical; settings: HPLC on reversed-phase column (C18), acetonitrile/water with formic acid, EEC Directive 79/831 Annex V.A8
Method in brief: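 Per EEC 79/831 Annex V.A8, values derive from HPLC retention at 2.0 ml/min and 55° C on a 50*4.6 C18 column. The 10→95% acetonitrile gradient (0.1%/0.09% formic acid) lasted 4.25 min plus a 1.25 min hold; mass detection was by MSD.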

CNC(=O)c1cc(-c2cnn(-c3c(C(F)(F)F)c(C(F)(F)C(F)(F)F)nn3C)c2)ccc1Cl [Ic-152]
efficacy (laying of fertile eggs) [1]: 100% | efficacy in % ([2]; application rate 500 g/ha): 100% | efficacy (kill in %) [3]: 100% | efficacy (dead or moribund fleas) ([4]; application rate 1 μg/cm^2): 100% | efficacy (dead or moribund fleas) ([4]; application rate 5 μg/cm^2): 100% | efficacy (dead or moribund ticks) ([5]; application rate 1 μg/cm^2): 100% | efficacy (dead or moribund ticks) ([5]; application rate 5 μg/cm^2): 100% | efficacy in % [6]: 100% | efficacy in % ([7]; application rate 500 g/ha): 100% | efficacy (laying of fertile eggs) [8]: 100% | nematicidal efficacy in % (formation of galls) [9]: 100% | efficacy (kill in %) [10]: 100% | efficacy in % ([11]; application rate 500 g/ha): 100% | efficacy (kill in %) [12]: 100%

Cn1nc(C(F)(F)C(F)(F)F)c(C(F)(F)F)c1-n1cc(-c2cnc(Cl)c(C(=O)NC3(C#N)CC3)c2)cn1 [Ic-83]
efficacy (laying of fertile eggs) [1]: 100% | efficacy in % ([2]; application rate 100 g/ha): 100% | efficacy (kill in %) [3]: 100% | efficacy (dead or moribund fleas) ([4]; application rate 1 μg/cm^2): 100% | efficacy (dead or moribund fleas) ([4]; application rate 5 μg/cm^2): 100% | efficacy (dead or moribund ticks) ([5]; application rate 1 μg/cm^2): 100% | efficacy (dead or moribund ticks) ([5]; application rate 5 μg/cm^2): 100% | efficacy in % ([7]; application rate 100 g/ha): 100% | efficacy (laying of fertile eggs) [8]: 100% | efficacy (dead or moribund ticks) [13]: 100% | efficacy (kill in %) [10]: 100% | efficacy (dead or moribund ticks) [14]: 100% | efficacy in % ([11]; application rate 100 g/ha): 100% | efficacy (kill in %) [12]: 100% | efficacy (kill in %) [15]: 100%

CSCC1CCC1NC(=O)c1cc(-c2cnn(-c3c(C(F)(F)F)c(C(F)(F)C(F)(F)F)nn3C)c2)ccc1Cl (stereo not drawn) [Ic-120]
efficacy in % ([2]; application rate 100 g/ha): 83% | nematicidal efficacy in % (formation of galls) [9]: 90% | logP [16]: 4.56 | efficacy in % ([11]; application rate 100 g/ha): 100%

Cn1nc(C(F)(F)C(F)(F)F)c(C(F)(F)F)c1-n1cc(-c2cc(Cl)c(Cl)c(C(=O)NC3(C#N)CC3)c2)cn1 [Ic-95]
efficacy (laying of fertile eggs) [1]: 100% | efficacy in % ([2]; application rate 500 g/ha): 100% | efficacy (kill in %) [3]: 100% | efficacy (dead or moribund fleas) ([4]; application rate 1 μg/cm^2): 100% | efficacy (dead or moribund fleas) ([4]; application rate 5 μg/cm^2): 100% | efficacy (dead or moribund ticks) ([5]; application rate 1 μg/cm^2): 100% | efficacy (dead or moribund ticks) ([5]; application rate 5 μg/cm^2): 100% | efficacy in % [6]: 90% | efficacy in % ([7]; application rate 500 g/ha): 100% | efficacy (laying of fertile eggs) [8]: 100% | efficacy (kill in %) [10]: 100% | efficacy (dead or moribund ticks) [14]: 100% | efficacy in % ([11]; application rate 500 g/ha): 100% | efficacy (kill in %) [12]: 100% | efficacy (kill in %) [15]: 100%

Cn1nc(C(F)(F)C(F)(F)F)c(C(F)(F)F)c1-n1cc(-c2ccc(Cl)c(C(=O)NCC(N)=O)c2)cn1 [Ic-156]
efficacy (laying of fertile eggs) [1]: 90% | efficacy in % ([2]; application rate 500 g/ha): 100% | efficacy in % [6]: 90% | efficacy in % ([7]; application rate 500 g/ha): 100% | nematicidal efficacy in % (formation of galls) [9]: 90% | efficacy (kill in %) [10]: 100% | efficacy in % ([11]; application rate 500 g/ha): 100%

Cn1nc(C(F)(F)C(F)(F)F)c(C(F)(F)F)c1-n1cc(-c2cc(F)c(F)c(C(=O)NC3(C#N)CC3)c2)cn1 [Ic-47]
efficacy (laying of fertile eggs) [1]: 100% | efficacy in % ([2]; application rate 500 g/ha): 100% | efficacy (kill in %) [3]: 100% | efficacy (dead or moribund fleas) ([4]; application rate 1 μg/cm^2): 100% | efficacy (dead or moribund fleas) ([4]; application rate 5 μg/cm^2): 100% | efficacy (dead or moribund ticks) ([5]; application rate 1 μg/cm^2): 100% | efficacy (dead or moribund ticks) ([5]; application rate 5 μg/cm^2): 100% | efficacy in % [6]: 100% | efficacy in % ([7]; application rate 500 g/ha): 100% | efficacy (laying of fertile eggs) [8]: 100% | efficacy (dead or moribund ticks) [13]: 100% | efficacy (kill in %) [10]: 100% | efficacy (dead or moribund ticks) [14]: 100% | efficacy (kill in %) [12]: 100% | efficacy (kill in %) [15]: 100%

Cn1nc(C(F)(F)C(F)(F)F)c(C(F)(F)F)c1-n1cc(-c2ccc(Cl)c(C(=O)NS(C)(=O)=O)c2)cn1 [Ic-26]
nematicidal efficacy in % (formation of galls) [9]: 90% | logP [16]: 3.58
